{"source": "patent US20220117956A1", "about": "“LSD FOR THE TREATMENT OF ALZHEIMER'S DISEASE” (Eleusis Therapeutics US, Inc., priority 2015, published 2022)", "origin": "cited, not measured here", "key": {"[1]": {"details": "formulated for immediate release; depending on dosage, tolerance, body weight and age"}, "[2]": {"details": "immediate release LSD dosed at 1 μg/kg"}}, "data": [{"smiles": "CCN(CC)C(=O)[C@@H]1C=C2c3cccc4[nH]cc(c34)C[C@H]2N(C)C1", "note": "[LSD, lysergic acid diethylamide]", "values": [{"measurement": "duration of LSD's effects", "setting": "[1]", "value": "6 to 12", "unit": "h"}, {"measurement": "apparent plasma half-life", "setting": "[2]", "value": 5.1, "unit": "h"}, {"measurement": "time of peak plasma concentration post-dose", "setting": "[2]", "value": 3, "unit": "h"}, {"measurement": "peak plasma concentration", "setting": "[2]; at 3 hours post-dose", "value": 5, "unit": "ng/mL"}]}]}
